ChEMBL document CHEMBL6092220 (J Med Chem, 2024)
The source made the active and inactive calls. The rule behind the calls is not given here.

Assays:
[1] = AUC (0 to t) in Sprague-Dawley rat at 5 mg/kg, iv; format: ADME, organism-based; conditions: in vivo
[2] = species: Homo sapiens; assay: Binding affinity to STAT5 (unknown origin) assessed as maximum inhibition by FP assay relative to control
[3] = Antitumor activity against human MOLM16 cells xenografted in mouse assessed as tumor regression at 10 to 20 mg/kg, iv; format: functional, MOLM-16; conditions: dose 10-20 mg/kg
[4] = biological target: Protein cereblon/Signal transducer and activator of transcription 4 (Homo sapiens, UniProt Q96SW2+Q14765); assay: PROTAC activity at STAT4/CRBN in human Pfeiffer cells transfected with STAT3 K658R mutant assessed as reduction in STAT4 level upto 40 uM incubated for 20 hrs by Western blot analysis; format: cell-based
[5] = Drug concentration in female CB17 SCID mouse spleen at 5 mg/kg, iv measured at 24 hrs by LC-MS/MS analysis; format: ADME, organism-based; conditions: read-out: Ct
[6] = biological target: T1, Protein cereblon/Signal transducer and activator of transcription 3 (Mus musculus) (UniProt P42227+Q8C7D2); assay: In-vivo PROTAC activity at STAT3/CRBN in female CB17 SCID mouse assessed as reduction STAT3 level spleen at 10 mg/kg, iv measured at 24 hrs by Western blot analysis; format: functional, organism-based; design: scale not given: the % may be the effect or the level left
[7] = system: MOLM16; assay: PROTAC activity at STAT5/CRBN in human MOLM16 cells assessed as reduction in STAT5 level upto 40 uM incubated for 4 hrs by Western blot analysis; format: cell-based
[8] = biological target: T1, Protein cereblon/Signal transducer and activator of transcription 3 (Mus musculus); assay: In-vivo PROTAC activity at STAT3/CRBN in female CB17 SCID mouse assessed as reduction STAT3 level liver at 10 mg/kg, iv measured at 24 hrs by Western blot analysis; format: functional, organism-based; design: scale not given: the % may be the effect or the level left
[9] = biological target: T1, Protein cereblon/Signal transducer and activator of transcription 3 (Mus musculus); assay: In-vivo PROTAC activity at STAT3/CRBN in female CB17 SCID mouse assessed as reduction STAT3 level spleen at 10 mg/kg, iv measured at 72 hrs by Western blot analysis; format: functional, organism-based; design: scale not given: the % may be the effect or the level left
[10] = Apparent volume of distribution in Beagle dog at 1 mg/kg, iv; format: ADME, organism-based, Canis lupus familiaris; conditions: in vivo, read-out: Vz
[11] = Stability in dog plasma assessed as half life; format: ADME, cell-free, Canis lupus familiaris
[12] = biological target: Protein cereblon/Signal transducer and activator of transcription 2 (Homo sapiens) (UniProt Q96SW2+P52630); assay: PROTAC activity at STAT2/CRBN in human Pfeiffer cells transfected with STAT3 K658R mutant assessed as reduction in STAT2 level upto 40 uM incubated for 20 hrs by Western blot analysis; format: cell-based
[13] = biological target: T1, Protein cereblon/Signal transducer and activator of transcription 3 (Mus musculus); assay: In-vivo PROTAC activity at STAT3/CRBN in female CB17 SCID mouse assessed as reduction in STAT3 level spleen at 5 mg/kg, iv measured at 72 hrs by immunobloting analysis; format: functional, organism-based; design: scale not given: the % may be the effect or the level left
[14] = Drug concentration in female CB17 SCID mouse liver at 5 mg/kg, iv measured at 6 hrs by LC-MS/MS analysis; format: ADME, organism-based; conditions: read-out: Ct
[15] = Stability in rat plasma assessed as half life; format: ADME, cell-free
[16] = biological target: T1, Protein cereblon/Signal transducer and activator of transcription 3 (Mus musculus); assay: In-vivo PROTAC activity at STAT3/CRBN in female CB17 SCID mouse assessed as reduction STAT3 level liver at 10 mg/kg, iv measured at 48 hrs by Western blot analysis; format: functional, organism-based; design: scale not given: the % may be the effect or the level left
[17] = Drug concentration in female CB17 SCID mouse liver at 5 mg/kg, iv measured at 3 hrs by LC-MS/MS analysis; format: ADME, organism-based; conditions: read-out: Ct
[18] = biological target: Protein cereblon/Signal transducer and activator of transcription 5A (Homo sapiens) (UniProt P42229+Q96SW2); assay: PROTAC activity at STAT5A/CRBN in human PBMC cells assessed as reduction in STAT5A level upto 40 uM incubated for 20 hrs by Western blot analysis; format: cell-based
[19] = biological target: Protein cereblon/Signal transducer and activator of transcription 6 (Homo sapiens) (UniProt P42226+Q96SW2); assay: PROTAC activity at STAT6/CRBN in human MOLM16 cells assessed as reduction in STAT6 level incubated for 4 hrs by Western blot analysis; format: cell-based
[20] = biological target: Cytochrome P450 3A4 (Homo sapiens, UniProt P08684); assay: Inhibition of CYP3A4 (unknown origin) using testosterone as substrate; format: ADME
[21] = biological target: Protein cereblon/Signal transducer and activator of transcription 1-alpha/beta (Homo sapiens, UniProt P42224+Q96SW2); assay: PROTAC activity at STAT1/CRBN in human Pfeiffer cells transfected with STAT3 K658R mutant assessed as reduction in STAT1 level upto 40 uM incubated for 20 hrs by Western blot analysis; format: cell-based
[22] = biological target: hERG (KCNH2) (Homo sapiens, UniProt Q12809); assay: Inhibition of hERG at 30 uM relative to control; format: toxicity
[23] = Drug concentration in female CB17 SCID mouse plasma at 5 mg/kg, iv measured at 48 hrs by LC-MS/MS analysis; format: ADME, organism-based
[24] = Antiproliferative activity against human MOLM16 cells assessed as cell growth inhibition incubated for 4 days by celltiter-glo assay; format: functional, cell-based, MOLM-16; conditions: MOLM16, 96 h
[25] = Stability in mouse plasma assessed as half life; format: ADME, cell-free
[26] = Stability in mouse Hepatocyte assessed as half life; format: ADME, cell-based; conditions: hepatocytes
[27] = biological target: Protein cereblon/Signal transducer and activator of transcription 3 (Homo sapiens, UniProt P40763+Q96SW2); assay: PROTAC activity at his-SUMO-tagged STAT3 (127 to 688 residues)/CRBN in human HeLa cells assessed as induction of STAT3 degradation incubated for 24 hrs by TECAN SPARK microplate reader analysis relative to control; format: cell-based
[28] = Stability in Non human primate plasma assessed as parent compound remaining at […]; format: ADME, cell-free; conditions: read-out: Stability
[29] = Drug concentration in female CB17 SCID mouse tumor at 5 mg/kg, iv measured at 48 hrs by LC-MS/MS analysis; format: ADME, organism-based, Neoplasm; conditions: read-out: Ct
[30] = biological target: Signal transducer and activator of transcription 6 (Homo sapiens) (UniProt P42226); assay: Binding affinity to STAT6 (unknown origin) assessed as maximum inhibition by FP assay relative to control
[31] = biological target: T1, Protein cereblon/Signal transducer and activator of transcription 3 (Mus musculus); assay: In-vivo PROTAC activity at STAT3/CRBN in female CB17 SCID mouse assessed as reduction in STAT3 level liver at 5 mg/kg, iv measured at 72 hrs by immunobloting analysis; format: functional, organism-based; design: scale not given: the % may be the effect or the level left
[32] = Antitumor activity against human MOLM16 cells xenografted in mouse assessed as tumor regression at 5 mg/kg, iv; format: functional, MOLM-16
[33] = Antitumor activity against human MOLM16 cells xenografted in mouse assessed as tumor growth inhibition at 10 mg/kg, iv; format: functional, MOLM-16; conditions: read-out: TGI
[34] = biological target: Cytochrome P450 2C8 (Homo sapiens, UniProt P10632); assay: Inhibition of CYP2C8 (unknown origin); format: ADME
[35] = biological target: Cytochrome P450 2C19 (Homo sapiens, UniProt P33261); assay: Inhibition of CYP2C19 (unknown origin); format: ADME
[36] = Drug concentration in female CB17 SCID mouse spleen at 5 mg/kg, iv measured at 48 hrs by LC-MS/MS analysis; format: ADME, organism-based; conditions: read-out: Ct
[37] = Drug concentration in female CB17 SCID mouse plasma at 5 mg/kg, iv measured at 24 hrs by LC-MS/MS analysis; format: ADME, organism-based

Work on `COC(=O)N1CC[C@H]2CC[C@@H](C(=O)N[C@@H](CCC(N)=O)C(=O)N[C@@H](Cc3ccc(F)c(F)c3)C(=O)N3CCC(CCC#Cc4cccc5c4CN(C4CCC(=O)NC4=O)C5=O)CC3)N2C(=O)[C@@H](NC(=O)c2cc3cc(C(F)(F)P(=O)(O)O)ccc3s2)C1` (some centres not stated) yielded an AUC(0-t) [1] of 59500 ng·h/mL, an Imax [2] of 50% and an Activity [3] of 100%. The Activity [4] was “inactive”, the concentration at 24 h [5] was 868 ng/g and the Activity [6] was greater than 90%. The Activity [7] was “inactive”, the Activity [8] was greater than 90% and the Activity [9] was greater than 90%. For the same compound, the Vd [10] was 0.29 L/kg, the t1/2 [11] was greater than 2 h and the Activity [12] was “inactive”. It also gave an Activity [13] greater than 90%, a concentration at 6 h [14] of 3570 ng/g and a t1/2 [15] greater than 2 h. The Activity [16] was greater than 90%, the concentration at 3 h [17] was 3850 ng/g and the Activity [18] was “inactive”. The Activity [19] was “inactive”, the IC50 [20] was greater than 10 µM and the Activity [21] was “inactive”. For the same compound, the inhibition at 30 µM [22] was 1.1%, the concentration at 48 h [23] was 12400 ng/mL and the IC50 [24] was 0.038 µM. It also gave a t1/2 [25] greater than 2 h, a t1/2 [26] greater than 2 h and an Emax [27] of 84%. For the same compound, the remaining at 2 h [28] was 101%, the concentration at 48 h [29] was 1110 ng/g and the Imax [30] was 10%. For the same compound, the Activity [31] was greater than 90%, the Activity [32] was 76% and the inhibition in vivo at 10 mg/kg [33] was 54%. It also gave an IC50 [34] greater than 10 µM, an IC50 [35] greater than 10 µM and a concentration at 48 h [36] of 615 ng/g. For the same compound, the concentration at 24 h [37] was 17100 ng/mL.
